# System: HBsAg
# Assay: HBsAg inhibition in HepG2.2.15 culture supernatant (ELISA)
# Type: cell-based, HBV
# Settings: HepG2.2.15 cells, supernatant on day 8, ELISA; read-out: Activity in HBsAg inhibition, EC50
# Description: Test method: HepG2.2.15 cell line was seeded into 96-well plates at 1.5×10^4 cells/well. On the following day, the cells were treated with a three-fold serial dilution series of the compounds at eight concentration points, and 2 duplicate wells were determined in parallel. The final DMSO concentration in the culture solution was 0.5%. On the fifth day, the culture solution was replaced with fresh solution containing the compounds. On the eighth day, the culture supernatant was collected and the HBsAg in the culture supernatant was detected by ELISA. The percent inhibition was calculated with respect to the blank control.
row,SMILES,EC50
1,"COc1cc2c(cc1OC1CCOCC1)CC(C(C)C)n1cc(C(=O)O)c(=O)cc1-2 (racemic) [Compound I-3-rac, 6-isopropyl-10-methoxy-2-oxo-9-((tetrahydro-2H-pyran-4-yl)oxy)-6,7-dihydro-2H-pyrido[2,1-α]isoquinoline-3-carboxylic acid]",7.04 nM
2,"COCC1(COc2cc3c(cc2Cl)-c2cc(=O)c(C(=O)O)cn2C(C(C)C)C3)CC1 (racemic) [Compound I-24-rac, 10-chloro-6-isopropyl-9-((1-(methoxymethyl)cyclopropyl)methoxy)-2-oxo-6,7-dihydro-2H-pyrido[2,1-α]isoquinoline-3-carboxylic acid]",5.78 nM
3,"COc1cc2c(cc1O[C@@H]1CCOC1)CC(C(C)(C)C)n1cc(C(=O)O)c(=O)cc1-2 (mixture of isomers) [Compound I-28-rac, 6-(tert-butyl)-10-methoxy-2-oxo-9-(((R)-tetrahydrofuran-3-yl)oxy)-6,7-dihydro-2H-pyrido[2,1-α]isoquinoline-3-carboxylic acid]",5.78 nM
4,"COCC1(COc2cc3c(cc2OC)-c2cc(=O)c(C(=O)O)cn2C(C(C)(C)C)C3)CC1 (racemic) [Compound I-30-rac, 6-(tert-butyl)-10-methoxy-9-((1-(methoxymethyl)cyclopropyl)methoxy)-2-oxo-6,7-dihydro-2H-pyrido[2,1-α]isoquinoline-3-carboxylic acid]",6.74 nM

# Same assay, conditions: Hepatitis B virus, HepG2.2.15, 192 h, read-out: Activity in HBsAg inhibition, EC50
row,SMILES,EC50
1,"COCCCOc1cc2c(cc1OC)-c1cc(=O)c(C(=O)O)cn1C(C(C)C)C2 (racemic) [A-rac, reference compound]",8.21 nM
2,"COc1cc2c(cc1O[C@H]1CCOC1)CC(C(C)C)n1cc(C(=O)O)c(=O)cc1-2 (mixture of isomers) [Compound I-1-rac, 6-isopropyl-10-methoxy-2-oxo-9-(((S)-tetrahydrofuran-3-yl)oxy)-6,7-dihydro-2H-pyrido[2,1-α]isoquinoline-3-carboxylic acid]",5.74 nM
3,"COc1cc2c(cc1O[C@@H]1CCOC1)CC(C(C)C)n1cc(C(=O)O)c(=O)cc1-2 (mixture of isomers) [Compound I-2-rac, 6-isopropyl-10-methoxy-2-oxo-9-(((R)-tetrahydrofuran-3-yl)oxy)-6,7-dihydro-2H-pyrido[2,1-α]isoquinoline-3-carboxylic acid]",3.26 nM
4,"COc1cc2c(cc1OC1COC1)CC(C(C)C)n1cc(C(=O)O)c(=O)cc1-2 (racemic) [Compound I-4-rac, 6-isopropyl-10-methoxy-9-(oxetan-3-yloxy)-2-oxo-6,7-dihydro-2H-pyrido[2,1-α]isoquinoline-3-carboxylic acid]",3.62 nM
5,"COc1cc2c(cc1O[C@H]1C[C@H](OC)C1)CC(C(C)C)n1cc(C(=O)O)c(=O)cc1-2 (mixture of isomers) [Compound I-5-rac, 6-isopropyl-10-methoxy-9-((1R,3S)-3-methoxycyclobutoxy)-2-oxo-6,7-dihydro-2H-pyrido[2,1-α]isoquinoline-3-carboxylic acid]",3.56 nM
6,"COCC1(COc2cc3c(cc2OC)-c2cc(=O)c(C(=O)O)cn2C(C(C)C)C3)CC1 (racemic) [Compound I-6-rac, 6-isopropyl-10-methoxy-9-((1-(methoxymethyl)cyclopropyl)methoxy)-2-oxo-6,7-dihydro-2H-pyrido[2,1-α]isoquinoline-3-carboxylic acid]",4.12 nM
7,"COCC1(COc2cc3c(cc2OC)-c2cc(=O)c(C(=O)O)cn2C(C(C)C)C3)COC1 (racemic) [Compound I-7-rac, 6-isopropyl-10-methoxy-9-((3-(methoxymethyl)oxetan-3-yl)methoxy)-2-oxo-6,7-dihydro-2H-pyrido[2,1-α]isoquinoline-3-carboxylic acid]",4.68 nM
8,"COc1cc2c(cc1OCC1CC(OC)C1)CC(C(C)C)n1cc(C(=O)O)c(=O)cc1-2 (racemic) [Compound I-8-rac, 6-isopropyl-10-methoxy-9-((3-methoxycyclobutyl)methoxy)-2-oxo-6,7-dihydro-2H-pyrido[2,1-α]isoquinoline-3-carboxylic acid]",5.59 nM
9,"COc1cc2c(cc1OCCCC(C)=O)CC(C(C)C)n1cc(C(=O)O)c(=O)cc1-2 (racemic) [Compound I-9-rac, 6-isopropyl-10-methoxy-2-oxo-9-((4-oxopentyl)oxy)-6,7-dihydro-2H-pyrido[2,1-α]isoquinoline-3-carboxylic acid]",3.71 nM
10,"COc1cc2c(cc1OC1CCCC1)CC(C(C)C)n1cc(C(=O)O)c(=O)cc1-2 (racemic) [Compound I-10-rac, 9-(cyclopentyloxy)-6-isopropyl-10-methoxy-2-oxo-6,7-dihydro-2H-pyrido[2,1-α]isoquinoline-3-carboxylic acid]",3.78 nM
11,"COc1cc2c(cc1C#CC1CC1)CC(C(C)C)n1cc(C(=O)O)c(=O)cc1-2 (racemic) [Compound I-11-rac, 9-(cyclopropylethynyl)-6-isopropyl-10-methoxy-2-oxo-6,7-dihydro-2H-pyrido[2,1-α]isoquinoline-3-carboxylic acid]",2.61 nM
12,"CC(C)C1Cc2cc(O[C@@H]3CCOC3)c(Cl)cc2-c2cc(=O)c(C(=O)O)cn21 (mixture of isomers) [Compound I-22-rac, 10-chloro-6-isopropyl-2-oxo-9-(((R)-tetrahydrofuran-3-yl)oxy)-6,7-dihydro-2H-pyrido [2,1-α]isoquinoline-3-carboxylic acid]",5.46 nM
13,"CO[C@H]1C[C@H](Oc2cc3c(cc2Cl)-c2cc(=O)c(C(=O)O)cn2C(C(C)C)C3)C1 (mixture of isomers) [Compound I-23-rac, 10-chloro-6-isopropyl-9-((1R,3R)-3-methoxycyclobutoxy)-2-oxo-6,7-dihydro-2H-pyrido [2,1-α]isoquinoline-3-carboxylic acid]",6.83 nM
14,"COCC1(COc2cc3c(cc2Cl)-c2cc(=O)c(C(=O)O)cn2C(C(C)C)C3)COC1 (racemic) [Compound I-25-rac, 10-chloro-6-isopropyl-9-((3-(methoxymethyl)oxetan-3-yl)methoxy)-2-oxo-6,7-dihydro-2H-pyrido[2,1-α]isoquinoline-3-carboxylic acid]",6.97 nM
15,"COC1CC(COc2cc3c(cc2Cl)-c2cc(=O)c(C(=O)O)cn2C(C(C)C)C3)C1 (racemic) [Compound I-26-rac, 10-chloro-6-isopropyl-9-((3-methoxycyclobutyl)methoxy)-2-oxo-6,7-dihydro-2H-pyrido[2,1-α]isoquinoline-3-carboxylic acid]",7.56 nM
16,"COc1cc2c(cc1O[C@H]1C[C@H](OC)C1)CC(C(C)(C)C)n1cc(C(=O)O)c(=O)cc1-2 (mixture of isomers) [Compound I-29-rac, 6-(tert-butyl)-10-methoxy-9-((1R,3R)-3-methoxycyclobutoxy)-2-oxo-6,7-dihydro-2H-pyrido[2,1-α]isoquinoline-3-carboxylic acid]",6.45 nM
17,"COCC1(COc2cc3c(cc2OC)-c2cc(=O)c(C(=O)O)cn2C(C(C)(C)C)C3)COC1 (racemic) [Compound I-31-rac, 6-(tert-butyl)-10-methoxy-9-((3-(methoxymethyl)oxetan-3-yl)methoxy)-2-oxo-6,7-dihydro-2H-pyrido[2,1-α]isoquinoline-3-carboxylic acid]",5.98 nM
18,"COc1cc2c(cc1OCC1CC(OC)C1)CC(C(C)(C)C)n1cc(C(=O)O)c(=O)cc1-2 (racemic) [Compound I-32-rac, 6-(tert-butyl)-10-methoxy-9-((3-methoxycyclobutyl)methoxy)-2-oxo-6,7-dihydro-2H-pyrido[2,1-α]isoquinoline-3-carboxylic acid]",7.31 nM
19,"COCC(C)(C)C1Cc2cc(O[C@@H]3CCOC3)c(OC)cc2-c2cc(=O)c(C(=O)O)cn21 (mixture of isomers) [Compound I-52-rac, 10-methoxy-6-(1-methoxy-2-methylpropan-2-yl)-2-oxo-9-(((R)-tetrahydrofuran-3-yl)oxy)-6,7-dihydro-2H-pyrido[2,1-α]isoquinoline-3-carboxylic acid]",7.57 nM
20,"COCC(C)(C)C1Cc2cc(O[C@H]3C[C@H](OC)C3)c(OC)cc2-c2cc(=O)c(C(=O)O)cn21 (mixture of isomers) [Compound I-53-rac, 10-methoxy-6-(1-methoxy-2-methylpropan-2-yl)-9-((1R,3R)-3-methoxycyclobutoxy)-2-oxo-6,7-dihydro-2H-pyrido[2,1-α]isoquinoline-3-carboxylic acid]",6.65 nM
21,"COCC1(COc2cc3c(cc2OC)-c2cc(=O)c(C(=O)O)cn2C(C(C)(C)COC)C3)CC1 (racemic) [Compound I-54-rac, 10-methoxy-6-(1-methoxy-2-methylpropan-2-yl)-9-((1-(methoxymethyl)cyclopropyl)methoxy)-2-oxo-6,7-dihydro-2H-pyrido[2,1-α]isoquinoline-3-carboxylic acid]",5.34 nM
22,"COCC1(COc2cc3c(cc2OC)-c2cc(=O)c(C(=O)O)cn2C(C(C)(C)COC)C3)COC1 (racemic) [Compound I-55-rac, 10-methoxy-6-(1-methoxy-2-methylpropan-2-yl)-9-((3-(methoxymethyl)oxetan-3-yl)methoxy)-2-oxo-6,7-dihydro-2H-pyrido[2,1-α]isoquinoline-3-carboxylic acid]",7.23 nM
23,"COCC(C)(C)C1Cc2cc(OCC3CC(OC)C3)c(OC)cc2-c2cc(=O)c(C(=O)O)cn21 (racemic) [Compound I-56-rac, 10-methoxy-6-(1-methoxy-2-methylpropan-2-yl)-9-((3-methoxycyclobutyl)methoxy)-2-oxo-6,7-dihydro-2H-pyrido[2,1-α]isoquinoline-3-carboxylic acid]",5.95 nM
24,"COCCC#Cc1cc2c(cc1OC)-c1cc(=O)c(C(=O)O)cn1[C@H](C(C)C)C2 [Compound I-12, (S)-6-isopropyl-10-methoxy-9-(4-methoxybut-1-yn-1-yl)-2-oxo-6,7-dihydro-2H-pyrido [2,1-α]isoquinoline-3-carboxylic acid]",3.83 nM

# Source: patent publication US20190381014A1, “ISOQUINOLINONE COMPOUNDS AND USE THEREOF IN PREPARATION OF ANTIVIRAL DRUGS” (Ginkgo Pharma Co., Ltd., priority 2016, published 2019)
